Peptide text beside a SMILES is read from it. * marks the point of attachment. Cbz = O=C(OCc1ccccc1)*
Legend:
[1] = test system: Class III HCT116 mTRdm-fLUC 7-5 and 12-16 cell lines; assay: Western blot of fLUC protein in 15-Assay cell extracts; type: cell-based, human
Procedure: The remaining cell suspension was centrifuged as described above and the pellets stored at −70/−80° C. for subsequent protein extraction and Western blot analysis. For protein extraction, cells were thawed on ice and resuspended in equal volumes of the Suspension Buffer (100 mM NaCl, 10 mM TrisHCl [pH 7.6], 1 mM EDTA, 1 mg/mL aprotinin, 100 μg/mL PMSF) and the 2×SDS Buffer (100 mM TrisHCl (pH6.8), 4% SDS, 20% glycerol, 20 mM DTT, 10 mM EDTA, 2× Roche Protease Inhibitor Cocktail). The extracts were homogenized by vigorous mixing and boiling for 3 min. Additional homogenization (when needed) was achieved by passing samples through a syringe fitted with a 26 G needle. At this point, the extracts were either analyzed by SDS-PAGE gel or stored at −80° C.
To produce a near quantitative Western blot analysis, equal protein concentrations are loaded on Western blots. […] The fLUC protein was detected using an anti-fLUC primary antibody (Sigma; 1:1000 dilution). After incubation with a primary antibody and extensive washing with 1×PBS-T, proteins binding the primary antibody were detected by incubation with a horseradish peroxidase (HRP) conjugated anti-rabbit secondary antibody (Amersham; 1:10000 dilution). Following incubation with the secondary antibody and extensive washing, reactive proteins were detected with the ECL reagent system (Amersham) as described by the vendor. […]

[2] = test system: MCF7 CMV-fLuc subclones #44 and #48; assay: PKC activator dose response, cap-dependent translation (fLuc); type: cell-based, human
Procedure: Following 6 hr exposure to the Single-Toxin TPA assay, cells were lysed and fLuc protein activity measured using a standard microplate reader assay. The raw values were averaged and expressed as the ratio of treated to untreated samples (Fold Induction).
Dashed lines represent translational response levels produced by a 100 nM TPA Single-Toxin assay. The Bryostatin 1 concentrations (top panel) encompassed the TPA concentrations used in FIG. 27A. […] The Bryostatin 2 dose response curve (bottom panel) employed higher drug concentrations (the maximal tested dose was 5× the largest TPA and Bryostatin 1 amounts). At the highest tested dose (2.5 uM), Bryostatin 2 produced fLuc activity consistent with the level observed with 100 nM TPA.
In addition to measuring cap-dependent and cap-independent translational effects, Class-specific translational activity and toxin-defined actions, the previously described materials and methods allow for a variety of applications designed to detect and characterize agents and processes that regulate ribosome activity. In this example, comparative dose response assays were used to detect cap-dependent and cap-independent translational regulation in MCF7 cells. The basis for this application was the observation that distinct translational responses are produced by compounds at different doses. When an assortment of compounds act on a common molecular target, they can be grouped into a genus of related drugs. By comparing individual species of a compound genus over a defined dose range, differences in translational regulation can be defined. Furthermore, these translational differences can often be linked to biological differences.
In this example (FIG. 27), the three PKC activators produced similar dose response trends in cap-dependent assays. […] However, macrolide lactones produced translational increases that were generally 60-70% of the TPA translational response (FIG. 27B). In fact, a 25 fold increase in Bryostatin 2 concentration (2.5 uM) was needed to produce a translational magnitude similar to the 100 nM TPA assay (FIG. 27B).

[3] = test system: MCF7 mTRdm-fLuc subclones #8, #27, and #45; assay: PKC activator dose response, cap-independent TR translation (fLuc); type: cell-based, human
Procedure: Following 6 hr culture with a TPA single-Toxin assay, cells were lysed and fLuc protein activity measured using a standard microplate reader assay. The plate reader values were averaged and expressed as the ratio of treated to untreated samples (Fold Induction).
As with FIG. 27B, dashed lines represent translational response levels achieved by the 100 nM TPA assay in each cell line. […] A further difference between the cap-dependent and cap-independent assays was the observation that increased Bryostatin 2 concentrations (5× the maximal TPA dose) never produced fLUC activity equivalent to the 100 nM TPA assay. Thus, the Toxin Assay procedure can detect a statistically significant difference in cap-dependent and cap-independent translation in compounds that activate PKC activity.
In the cap-independent assays, a similar dose response trend was observed over a 1 nM to 250 nM range with a translational peak at a 100 nM dose. However, the magnitude of the Bryostatin increases were generally 30% of 100 nM TPA response.

Protein Kinase C (PKC) = settings: cited from earlier work
HCT116 mTRdm-fLUC cells = assay: 5-Assay / 15-Assay toxin assays, fLUC plate reader (Fold Induction); type: cell-based, human; settings: 5-Assay, 6 hr, HCT116 mTRdm-fLUC 12-16 subclone #38
Procedure: The 5-Assay and 15-Assay procedures were applied to cellular pools using either of two growth procedures (e.g. a Cell Count or Confluence growth assay). For a Cell Count assay, cells from the P1 pool dish were counted and passed into a white clear bottom 96-well microtiter tray at a density of 25,000 cells per well; the leftover cells were passed into a passage 2 (P2) dish. Cells in the microtiter plate were allowed to grow for about 40 hr to achieve a ˜75% cell confluence prior to incubation with a toxic agent. Then cells in a microtiter plate were treated with complete growth medium containing either no toxin or an optimal toxin, defined as a single or multiple toxin assay that produces a maximal translational response (taken from Table 3) and incubated for 6 hours at 37° C. Each treatment was performed on triplicate wells.
After toxin incubation, cells were examined by phase contrast microscopy for signs of detachment. If more than ˜10% of cells were detached, the 96-well plates were centrifuged at 1200 rpm for 3 min to pellet the detached cells. The media were removed and replaced with 50 μL of Cell Lysis Buffer (25 mM Tris-phosphate (pH7.8), 10% glycerol, 1% Triton X-100, 1 mg/ml BSA, 2 mM EGTA and 2 mM DTT). Cells were incubated with the Cell Lysis Buffer for 10 min at RT and cell lysis was verified using a phase contrast microscope. To ensure complete lysis, the lysates were vigorously agitated using the multichannel pipettor. Any air bubbles formed as a result of agitation were manually removed with a syringe needle. Luminescence was measured using the FLUOstar Optima (BMG Labtech) microplate reader. To develop luminescence, wells were injected with 5 μL of the D-luciferin solution dissolved in Reaction Buffer (25 mM Glycylglycine (pH 7.8), 15 mM MgSO4, 4 mM EDTA, 15 mM Potassium phosphate, 1 mM DTT, 1 mM Coenzyme A, 6.7 mM ATP and 3.35 mM D-luciferin). After 4 sec with shaking, luminescence values were measured using the lens filter at gains of 2500-4000.
Light values were converted to Fold Induction using the ratio of values produced by treated and untreated cells. The maximal TR-specific translational response produced by the 5-Toxin or 15-Toxin assay was used to assign an optimal toxin assay (maximal translational response) which was subsequently used to screen subclones derived from this pool and to assign a Class designation. […]
In one test, the 5-Assay procedure (Table 3) was applied to HCT116 mTRdm-fLUC 12-16 subclone #30 cells (FIG. 1A). […] Samples were then processed with Lysis buffer and read in a plate reader. […]
Triplicate samples of HCT116 mTRdm-fLUC 12-16 Sub#30 cells were cultured with the two-Toxin assays using a standard plate reader protocol (FIG. 1C). […]

[4] = test system: HEK293 hTRdm-fLuc #53 and HEK293 mTRdm-fLuc #12 subclones; assay: Microtubule disruptor single-Toxin dose response, cap-independent; type: cell-based, human; settings: cap-dependent and cap-independent assays
Procedure: The plate reader values were averaged and expressed as the ratio of treated to untreated samples (Fold Induction). Highly similar TR expression profile were produced by the human (hTRdm, top panel) and the mouse (mTRdm, bottom panel) TR cassettes. […] In contrast, significant increases in reporter activity were only observed at nocodazole concentrations greater than 250 nM. As in the cap-dependent assay, taxol-specific reporter increases were only observed at the 2.5 uM and 5 uM doses.
Highly similar cap-independent translational profiles were produced by each TR-expressing cell line (FIGS. 29B and C). […] This contrasted with the nocodazole responses, where significant increases were observed only at concentrations larger than 250 nM. As before, taxol-specific translational increases were only observed at the 2.5 uM and 5 uM doses.

[5] = test system: HEK293 CMV-fLuc subclone #3; assay: Updated 15-Assay / 21-Assay, cap-dependent translational responses; type: cell-based, human; settings: 21-Assay, single-Toxin (Unknown), 6 hr
Description: (§1) The dashed line represents the level of translational response in the untreated samples.
Following 6 hr exposure to the compounds, cells were lysed and fLuc protein activity measured using a standard microplate reader assay. The triplicate plate reader values were averaged and expressed as the ratio of treated to untreated samples (Fold Induction). The dashed line represents the level of translational response in the untreated samples.
The 21-Assay procedure employs the same standard toxins as the Updated 15-Assay protocol. The extra 6 assays involve an unknown or an uncharacterized compound and its pairwise combinations with the five toxins: Unknown, Unknown+TPA, Unknown+Colchcine, Unknown+Bortezomib (Velcade), Unknown+Low dose Calon, and Unknown+Hycamtin (Topotecan).
Application of single-Toxin and two-Toxin assays in the Updated 15-Assay protocol was used to define cap-dependent translational responses in the HEK293 CMV-fLuc #3 subclone (FIG. 30A).
The combinatorial process described in this example provides a system for testing translational regulation by unknown compounds. In this example, a 21-Assay setup is described that employs the single and pairwise combinatorial application of 5 toxins, as in a standard 15-Toxin assay, and the addition of a sixth substance. Inclusion of the sixth substance requires the expansion of the assay group to a total of 21 single- and two-Toxin assays. For this example, a control substance (taxol) was selected from the original 15-Assay system.

[6] = test system: HEK293 mTRdm-fLuc subclone #13 and HEK293 hTRdm-gLuc subclone #79; assay: Updated 15-Assay / 21-Assay, TR translational responses (fLuc, gLuc); type: cell-based, human; settings: 21-Assay, subclone #13, taxol as Unknown
Procedure: as §1
As before, secreted Gaussia Luciferase (gLUC) activity was measured in conditioned media 6 hr after drug application and protein activity expressed as the ratio of treated to untreated samples (Fold Induction). The dashed line represents the translational response in untreated cells.
The dashed line represents the translational response produced by untreated cell samples.
Following a 6 hr culture time, secreted gLuc activity was measured in conditioned media using a standard microplate reader assay and expressed as the ratio of treated to untreated samples (Fold Induction). The dashed line represents the level of translational response in the untreated samples. Given that the gLuc protein is secreted into the media, it escapes the cytoplasmic protein turnover processes acting on the fLUC protein. Therefore, any difference in the apparent TR response is a likely result of variation in reporter protein synthesis, secretion or reduced protein turnover.
The 21-Assay procedure employs the same standard toxins as the Updated 15-Assay protocol. The extra 6 assays involve an unknown or an uncharacterized compound and its pairwise combinations with the five toxins: Unknown, Unknown+TPA, Unknown+Colchcine, Unknown+Bortezomib (Velcade), Unknown+Low dose Calon, and Unknown+Hycamtin (Topotecan). […]

**Q.** What does the source list for CC(C)C[C@@H](C=O)NC(=O)[C@H](CC(C)C)NC(=O)[C@H](CC(C)C)NC(=O)OCc1ccccc1 [MG132, Z-Leu-Leu-Leu-aldehyde] (Cbz-Leu-Leu-Leu-aldehyde)?
**A.** fLUC protein levels by Western blot ([1]; HCT116 mTRdm-fLUC 7-5, 15-Assay): significant fLUC protein levels; fLUC protein levels by Western blot ([1]; HCT116 mTRdm-fLUC 12-16, 15-Assay, 6 hrs): extremely high protein levels

**Q.** What does the source list for Bryostatin 2?
**A.** fold increase in concentration needed for translational magnitude similar to the 100 nM TPA assay [2]: 25 fold; dose producing fLuc activity consistent with the level observed with 100 nM TPA ([2]; single-Toxin, highest tested dose): 2.5 µM; % of the 100 nM TPA response ([3]; dose 2.5 uM): ~50%; magnitude of translational response versus 100 nM TPA tests ([3]; single-Toxin): never reached the fLuc activity produced in 100 nM TPA tests; inhibition constant (Ki) relative to the Ki of Bryostatin 1 (Protein Kinase C (PKC)): 10 ×

**Q.** What does the source list for CC(=O)O[C@H]1C(=O)[C@@]2(C)[C@H]([C@H](OC(=O)c3ccccc3)[C@]3(O)C[C@H](OC(=O)[C@H](O)[C@@H](NC(=O)c4ccccc4)c4ccccc4)C(C)=C1C3(C)C)[C@]1(OC(C)=O)CO[C@@H]1C[C@@H]2O [Taxol, Paclitaxel]?
**A.** TR-specific toxin response (HCT116 mTRdm-fLUC cells): Maximal TR-specific toxin responses; response profile compared with other microtubule disruptor drugs [4]: smallest response profile of all the microtubule disruptor drugs tested; effect on cap-dependent fLuc protein production [5]: minimal effect on cap-dependent fluc protein production; effect on fLUC activity [6]: small synergistic increases in fLUC activity in the single-Toxin and the colchicine+taxol, calcimycin+taxol, bortezomib+taxol two-Toxin assays, but not in the TPA+taxol or topotecan+taxol assays
